{
  "source": "patent US10435361B2",
  "about": "“Kinase inhibitors” (Topivert Pharma Limited, priority 2013, dated 2019)",
  "key": {"Lewis rats": {"tested_on": "Lewis rats", "assay": "Endotoxin-induced uveitis in rats", "assay_type": "in vivo", "settings": "rats treated with intravitreal endotoxin LPS", "experimental": "Male, Lewis rats (6-8 weeks old, Charles River UK Limited) are housed in cages of 3 at 19-21° C. with a 12 h light/dark cycle (07:00/19:00) and fed a standard diet of rodent chow and water ad libitum. Non-fasted rats are weighed, individually identified on the tail with a permanent marker, and receive a single intravitreal administration into the right vitreous humor (5 μL dose volume) of 100 ng/animal of LPS (Escherichia coli 0111:B4 prepared in PBS, Sigma Aldrich, UK) using a 32-gauge needle. Untreated rats are injected with PBS. Test compound, dexamethasone (Dex) or vehicle (20% hydroxypropyl-β-cyclodextrin, 0.1% HPMC, 0.01% Benzalkonium chloride, 0.05% EDTA, 0.7% NaCl in deionised water) are administered by the topical route onto the right eye (10 μL) of animals 30 minutes prior to LPS, at the time of LPS administration, and 1, 2 and 4 hours post LPS administration. Before administration, the solution or suspension to be administered is agitated for 5 minutes to ensure a uniform suspension. 6 hours after LPS dosing, animals are euthanized by overdose with pentobarbitone (i.v.). Following euthanasia, the right eye of each animal is enucleated and dissected into front (anterior) and back (posterior) sections around the lens. Each section is weighed and homogenised in 500 μL of sterile phosphate buffered saline followed by 20 minutes centrifugation at 12000 rpm at 4° C. The resulting supernatant is divided into 3 aliquots and stored at −80° C. until subsequent cytokine analysis by R&D DuoSet ELISA."}, "PBMCs [1]": {"tested_on": "PBMCs", "assay": "Cell mitosis assay in PBMCs", "assay_type": "cell-based", "settings": "Homo sapiens, PBMC, 5 μg/mL", "procedure,_shortened": "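Human PBMCs from healthy donors, density-gradient isolated, stimulated with 2% PHA 48 h, then exposed 20 h to test compounds; demecolcine 0.1 μg/mL added 2 h before harvest. Fixed/permeabilised cells stained for phospho-histone H3 and propidium iodide; mitotic lymphocytes counted by flow cytometry.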"}, "[2]": {"assay": "Hydrolytic stability study (DMSO/water 3:1, 60° C.)", "assay_type": "physicochemical", "experimental": "Chemical stability of compounds of the invention was assessed in a mixture of DMSO and water (3:1) at a test compound concentration of 1 mg/mL\nAgilent, Waters X-Select C18, 2.5 μm, 4.6×30 mm column, 4 min method, 5-95%\nMeCN/water (0.1% formic acid).\nColumn Oven Temperature 40° C.\nSample Preparation • A 1.0 mg sample of test compound was dissolved in 750 μL of DMSO. Water (250 μL) was added slowly, ensuring no precipitation occurred.\nRecording Stability • A 50 μL aliquot of the test solution was removed and analysed in duplicate by 5 μL HPLC injections. The peak area for the test compound was recorded following manual integration of the corresponding UV trace. • The test solution was heated to 60° C., with stirring, and 50 μL aliquots removed for HPLC analysis at 5 and 24 h timepoints."}, "PBMCs [3]": {"tested_on": "PBMCs", "assay": "IL-2 and IFN gamma release in CD3/CD28 stimulated PBMC cells", "assay_type": "cell-based", "settings": "Homo sapiens, assay (c)", "procedure,_shortened": "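Healthy-donor PBMCs, density-gradient isolated, stimulated on plates pre-coated with anti-CD3 (0.3 μg/mL) and anti-CD28 (3 μg/mL) antibodies, with compound, for 3 days under standard culture conditions. IC50 derived from the dose-response curve.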"}, "BDF1 mice": {"tested_on": "BDF1 mice", "assay": "TNBS-induced colitis in mice", "assay_type": "in vivo", "settings": "conducted over 2 days; vehicle corn oil/transcutol/maisine/cremophor ELP", "experimental": "Non-fasted, 10-12 week old, male BDF1 mice are dosed by oral gavage twice daily with either vehicle (5 mL/kg), reference item (Budesonide 2.5 mg/kg) or test compound (1 or 5 mg/kg) one day before (Day −1) stimulation of the inflammatory response by treatment with 2,4,6-trinitrobenzenesulphonic acid (TNBS) (15 mg/mL in 50% ethanol/50% saline). On Day 0 of the study TNBS (200 μL) is administered intra-colonically via a plastic catheter with BID dosing of the vehicle, reference or test compound continuing for 2 or 4 days. During the study, animals are weighed every day and stool observations are made and recorded as a score, based on stool consistency. At the time of sacrifice on Day 2 (or Day 4), the large intestine is removed and the length and weight recorded. Sections of the colon are taken for histopathology scoring to determine disease severity."}, "[4]": {"tested_on": "Salmonella typhimurium TA98", "assay": "Bacterial reverse mutation screen, strain TA98", "assay_type": "cell-based", "settings": "presence or absence of S-9 mix; up to 1000 μg/plate analysable", "experimental": "(§1) Studies were conducted by Sequani (Ledbury, Herefordshire, UK) to assess compounds of the invention for their ability to induce mutations in two histidine dependent auxotrophic mutants of Salmonella typhimurium, strains TA98 and TA100 in vitro.\n(§2) The mutation screen was conducted using the plate incorporation method and was performed in both the presence and absence of S-9 mix (a liver post-mitochondrial fraction derived from the livers of Aroclor 1254 treated rats). The bacteria were exposed to test compounds dissolved in dimethylsulphoxide, which solvent was also used as the negative control. The dose levels used were 0.32, 1.6, 8, 40, 200, 1000 or 5000 μg/plate.\n(§3) Precipitation was also noted in both strains at 1000 μg/plate in the presence and absence of S-9 mix."}, "[5]": {"tested_on": "Salmonella typhimurium TA100", "assay": "Bacterial reverse mutation screen, strain TA100", "assay_type": "cell-based", "settings": "presence or absence of S-9 mix; up to 1000 μg/plate analysable", "experimental": "as §1, §2, §3"}, "[6]": {"assay": "Plasma pharmacokinetics in rats, single intravenous or oral administration", "assay_type": "in vivo", "settings": "male, Wistar, rat, rats, intravenous 0.25 mg/kg", "experimental": "Studies were conducted by Sai Life Sciences (Hinjewadi, Pune, India) to investigate the plasma pharmacokinetics and total colon tissue distribution of compounds of the invention. In particular, pharmacokinetic studies were carried out in: • male C57BL/6 mice, following a single oral administration; and • male Wistar rats following a single intravenous or oral administration."}, "PBMCs [7]": {"tested_on": "PBMCs", "assay": "LPS-induced TNFα/IL-8 release in PBMC cells", "assay_type": "cell-based", "settings": "Homo sapiens, assay (b), read-out: IC50 Values for Inhibition of Cytokine Release PBMCs IL-8", "procedure,_shortened": "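Healthy-donor PBMCs isolated by density gradient were pretreated with compound for 2 h, then stimulated with 1 ng/mL LPS (E. coli 0111:B4) for 24 h at 37° C., 5% CO2. IL-8 and TNFα in supernatants measured by sandwich ELISA.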"}, "CYP2C9": {"molecular_target": "CYP2C9 (Homo sapiens (Human), UniProt P11712)", "sequence (P11712 whole entry)": "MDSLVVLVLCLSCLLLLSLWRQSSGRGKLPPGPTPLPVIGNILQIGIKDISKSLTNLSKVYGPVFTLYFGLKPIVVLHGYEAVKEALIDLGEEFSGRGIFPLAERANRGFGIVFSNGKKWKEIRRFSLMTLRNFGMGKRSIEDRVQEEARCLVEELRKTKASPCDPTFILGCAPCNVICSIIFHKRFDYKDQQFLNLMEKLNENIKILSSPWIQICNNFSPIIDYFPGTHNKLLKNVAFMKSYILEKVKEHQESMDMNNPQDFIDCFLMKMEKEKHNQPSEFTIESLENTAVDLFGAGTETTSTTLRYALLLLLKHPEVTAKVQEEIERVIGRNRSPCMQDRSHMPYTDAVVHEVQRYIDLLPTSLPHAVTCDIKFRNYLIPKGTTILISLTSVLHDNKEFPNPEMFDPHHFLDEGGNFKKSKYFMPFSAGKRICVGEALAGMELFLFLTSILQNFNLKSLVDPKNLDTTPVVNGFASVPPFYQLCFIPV", "assay": "CYP2C9 inhibition studies", "assay_type": "in vitro ADME", "settings": "inhibition at 5 μM reported instead of 15 μM (precipitation)", "experimental": "Assessment of certain in vitro ADME (absorption, distribution, metabolism, and excretion) parameters for certain compounds of the invention was conducted by BioFocus (Saffron Walden, UK)."}},
  "note": "pIC50: −log10 of the molar value.",
  "data": [
    {"smiles": "COc1c(NC(=O)Nc2ccc(Oc3ccnc(Nc4ccccc4)c3)c3ccccc23)cc(C(C)(C)C)cc1C(=O)NC1COC1", "note": "[Example 75, 5-(tert-Butyl)-2-methoxy-N-(oxetan-3-yl)-3-(3-(4-((2-(phenylamino)pyridin-4-yl)ox)-naphthalen-1-yl)ureido)benzamide]", "values": [
      {"measurement": "cytokine levels in the anterior and posterior segments of the eyes", "setting": "Lewis rats", "result": "significantly reduced"},
      {"measurement": "inhibition at 5 µg/mL", "setting": "PBMCs [1]", "result": 42.6, "unit": "%"},
      {"measurement": "% Parent Remaining", "setting": "[2]; DMSO/water 3:1, 0 min", "result": 100, "unit": "%"},
      {"measurement": "% Parent Remaining", "setting": "[2]; DMSO/water 3:1, 60° C., 1440 min", "result": 99, "unit": "%"},
      {"measurement": "pIC50", "setting": "PBMCs [3]; read-out: IC50 Values for Inhibition of Cytokine Release PBMCs IFNγ", "result": 7.83},
      {"measurement": "pIC50", "setting": "PBMCs [3]; read-out: IC50 Values for Inhibition of Cytokine Release PBMCs IL-2", "result": 7.25},
      {"measurement": "activity in TNBS-induced colitis (histopathology analysis)", "setting": "BDF1 mice", "result": "displayed substantial activity"},
      {"measurement": "increases in revertant colonies, strain TA98", "setting": "[4]", "result": "no dose-related or statistically significant increases in revertant colonies"},
      {"measurement": "increases in revertant colonies, strain TA100", "setting": "[5]", "result": "no dose-related or statistically significant increases in revertant colonies"},
      {"measurement": "clearance", "setting": "[6]", "result": 4.4, "unit": "mL/min/kg"},
      {"measurement": "pIC50", "setting": "PBMCs [7]", "result": 8.30}
    ]},
    {"smiles": "C#CC(C)(C)c1cc(NC(=O)Nc2ccc(Oc3ccnc(Nc4cc(C)c5[nH]ncc5c4)n3)c3ccccc23)n(-c2ccc(C)cc2)n1", "note": "[Ref Cpd A]", "values": [
      {"measurement": "% Inh at 5 μM", "setting": "CYP2C9; CYP2C9, 0 min preincubation", "result": "31^[†] %"},
      {"measurement": "% Inh at 5 μM", "setting": "CYP2C9; CYP2C9, 30 min preincubation", "result": "66^[†] %"}
    ]}
  ]
}
